Experiments:
Tregs and Teff cells = assay: Treg suppression assays with cells purified from treated mice; assay type: in vivo; conditions: Treg:Teff 2:1 to 0:1
Excerpt: (§1) Treg and Teff cells were purified using magnetic beads from DMSO- or p300i-treated mice.

Treg and Teff cells [1] = assay: Treg and Teff gene expression in vitro by qPCR; assay type: cell-based; conditions: 5 μM, 24 hours, CD3/CD28 mAbs plus IL-2
Protocol: Gene expression Foxp3, CTLA-4, GITR and TGF-β in the activated Treg and Teff cells was determined by qPCR (mean±SD, n=3/grp) and normalized to 18S.

Tregs = assay: in vitro murine Treg suppression assay (CFSE-labeled Teff proliferation); assay type: cell-based; conditions: for % proliferating cells: 5 μM, 72 hours
Protocol: Med. (2007) 13:1299-307, the contents of which are incorporated by their entireties. In these assays, effector T cells (Teffs) were labeled with carboxyfluorescein diacetate succinimidyl ester (CFSE), and stimulated by CD3 mAb plus irradiated antigen presenting cells (APCs). […] The percentage of proliferating CFSE-labeled Teffs in each mixture was assessed by flow cytometry after 72 hours as shown in Table 1.

B6 mice = assay: T cell proportions in lymph nodes and spleen of treated mice; assay type: in vivo; conditions: for CD4 proportion / CD8 proportion / CD62L CD44 proportion / Foxp3+ CD4 proportion: 0.9 mg/kg/day via Alzet pump for 7 days
Protocol: as §1
The proportions of CD4, CD8, Foxp3+ CD4, or CD62L CD44 (markers of memory vs. naive T cells) cells in lymph nodes (LN) and spleen (SP) of DMSO- and C646-treated mice were determined as shown in Table 4.

TC1 lung cancer cells [2] = assay: TC1 lung cancer tumor growth in WT B6 mice; assay type: in vivo
Protocol: In the second experiment, p300 inhibition was achieved by using a p300 inhibitor. TC1 lung cancer cells were injected in the flanks of WT B6 mice. […] Tumor volume was monitored in the mice on days 6, 10, 12, 15 and 19 post-tumor injection (FIG. 5B). […] DMSO- and C646-treated mice having tumors were obtained as described in Example 9. […] The growth of tumors in the mice was monitored by tumor volume and tumor weight (FIG. 6B).

Teffs and Tregs = assay: CD4+ Foxp3+ proportion and MFI in Teffs and Tregs by flow cytometry; assay type: cell-based; conditions: 6 hours
Protocol: Teffs and Tregs were isolated, and treated with 5, 10, or 20 μM p300i or DMSO for 6 hours. Flow cytometry was used to determine the CD4+ Foxp3+ proportion in Teffs or Tregs (Table 2) and the mean fluorescent intensity (MFI) of CD4+ Foxp3+ cells in Teffs or Tregs (Table 3) before or after being treated with p300i or DMSO.

TC1 lung cancer cells [3] = assay: TC1 lung cancer tumor growth in immunodeficient RAG-/- mice; assay type: in vivo
Protocol: TC1 lung cancer cells were injected in the flanks of RAG−/− mice. […] Tumors were harvested from the mice 17 days post-tumor injection. Tumor volume was monitored on days 0, 5, 10, 13 and 17 post-tumor injection. […] Tumors were exposed to C646 in RAG−/− mice. […] No effects on acetylation of certain p300-independent targets in the tumor extracts was observed (e.g. acetylation of alpha-tubulin was unimpaired).

[4] = test system: CFSE-labeled CD4 and CD8 cells; assay: first parent-to-F1 assay (C57BL/6->DBA/B6), alloantigen-induced T cell proliferation in vivo; design: species or system mice; conditions: 0.8 mg/kg/d continuous via Alzet pump; 3 day assay
Excerpt: In the first parent-to-F1 assay (C57BL/6->DBA/B6) (Tao et al., J. Immunol. (2005) 175:5774-82; Tao et al., J. Immunol. (2008) 180:6649-55; the contents of both of which are incorporated herein in their entireties), activation and proliferation of adoptively transferred CFSE-labeled CD4 and CD8 cells was monitored by flow cytometry in a 3 day assay. […] The percentages of CFSE-labeled CD4 proliferating or dividing cells from DSMO- and C646-treated mice were 65% and 73%, respectively. The percentages of CFSE-labeled CD8 proliferating or dividing cells from DSMO- and C646-treated mice were 93% and 95%, respectively.

cardiac allografts = assay: cardiac allograft model (BALB/c hearts into B6 RAG-/- recipients with adoptive transfer); assay type: in vivo, mice
Excerpt: The effects of several HAT inhibitors (HATi) in a cardiac allograph model were studied in three experiments. This model involved vascularized cardiac allografts from BALB/c donors transplanted into immunodeficient C57BL/6 RAG−/− (B6 RAG−/−) recipients. The recipients were adoptively transferred with 1×10^6 purified C57BL/6 Teff cells (CD4+CD25−) alone or in combination with 0.5×10^6 purified Treg cells (CD4+CD25+). The cardiac allograft survival rates of the allograft recipients were monitored over a period of 120 days post-transplant.
In the first experiment, the allograft recipients were adoptively transferred with 1×10^6 Teff cells and 0.5×10^6 purified Tregs (CD4+CD25+), and treated with DMSO (control) or a HAT inhibitor via Alzet pump. Four HAT inhibitors were tested. […] One was a PCAF/GCN5 inhibitor, Lys-20-CoA-Tat. […] Rejection was defined as cessation of heartbeat.
The p300i was delivered to the allograft recipients at 0.9 mg/kg/d for 14 d using Alzet pumps.
In the third experiment, B6/RAG−/− mice (n=4/grp) were engrafted with fully MHC-mismatched BALB/c cardiac grafts and adoptively transferred with WT B6 Teff cells (1×10^6) alone or plus Tregs (0.5×10^6). […] Use of p300−/− Tregs was also unable to suppress Teff cells and prolong allograft survival in this adoptive transfer model.

Treg and Teff cells [5] = assay: gene expression by Treg and Teff cells from treated mice (qPCR); assay type: in vivo; conditions: cells from mice given 0.9 mg/kg/day for 7 days
Protocol: as §1
Gene expression by Treg and Teff cells from DSMO- or C646-treated mice (four mice/group) was analyzed by qPCR.

CFSE-labeled T cells = assay: second parent-to-F1 assay (B6 T cells into B6D2F1 mice); assay type: in vivo; conditions: 0.9 mg/kg/d for 3 days by Alzet pumps
Excerpt: The percentages of CFSE-labeled CD4 proliferating cells from DSMO- and C646-treated mice were 94.5% and 95.0%, respectively. The percentages of CFSE-labeled CD8 proliferating or dividing cells from DSMO- and C646-treated mice were 78.5% and 81.6%, respectively. Donor CD4 and CD8 cells (H-2d negative) from both groups had similar alloantigen-induced activation and proliferation (p>0.05).

[6] = compared with DMSO-treated mice, p<0.005
[7] = qPCR, tumors from treated mice vs DMSO

CC1=NN(c2ccc(C(=O)O)cc2)C(=O)/C1=C\c1ccc(-c2cc(C)c(C)cc2[N+](=O)[O-])o1 [C646]
ability of Tregs to suppress proliferation of Teff cells from untreated mice (Tregs and Teff cells; Tregs from C646-treated mice, p<0.05): decreased
response of Teff cells from treated mice to suppression by control normal Tregs (Tregs and Teff cells; Tregs from untreated mice): responded normally
Treg expression of GITR gene (Treg and Teff cells [1]): downregulated
Treg expression of CTLA-4 gene (Treg and Teff cells [1]; statistical significance): downregulated
Treg expression of Foxp3 gene (Treg and Teff cells [1]; statistical significance): downregulated
Treg expression of TGF-β gene (Treg and Teff cells [1]; statistical significance): downregulated
suppressive actions of Tregs (Tregs; HATi 5 μM): largely abrogated the suppressive actions of Tregs
% proliferating cells (Tregs; Treg:Teff 0:1): 88%
% proliferating cells (Tregs; Treg:Teff 1:1): 66%
% proliferating cells (Tregs; Treg:Teff 1:2): 70%
% proliferating cells (Tregs; Treg:Teff 1:4): 78%
% proliferating cells (Tregs; Treg:Teff 1:8): 85%
effect on the proportions of the tested cells (CD4, CD8, Foxp3+ CD4, CD62L CD44) (B6 mice; LN and SP, compared to DMSO-treated mice, 0.9 mg/kg/day, 7 days): negligible effect
CD4 proportion (B6 mice; LN): 35
CD8 proportion (B6 mice; LN): 34
CD62L CD44 proportion (B6 mice; LN): 6
Foxp3+ CD4 proportion (B6 mice; LN): 8
CD4 proportion (B6 mice; SP): 18
CD8 proportion (B6 mice; SP): 12
CD62L CD44 proportion (B6 mice; SP): 12
Foxp3+ CD4 proportion (B6 mice; SP): 13
tumor growth (tumor volume) (TC1 lung cancer cells [2]; 0.9 mg/kg/day for about 14 days via Alzet pumps from day 6, days 6-19): suppressed tumor growth
tumor growth by volume (TC1 lung cancer cells [2]; [6]): significantly reduced
tumor growth by weight (TC1 lung cancer cells [2]; [6]): significantly reduced
intratumoral CD4 mRNA (TC1 lung cancer cells [2]; [7]): significantly increased
intratumoral CD8 mRNA (TC1 lung cancer cells [2]; [7]): comparable
intratumoral Foxp3 mRNA (TC1 lung cancer cells [2]; [7]): significantly reduced
intratumoral granzyme B mRNA (TC1 lung cancer cells [2]; [7]): significantly increased
IFN-γ production by purified CD8 (ELISPOT) (TC1 lung cancer cells [2]; tumor-bearing treated mice): increased
mean fluorescent intensity (MFI) of CD4+ Foxp3+ cells (Teffs and Tregs; Teff, 5 μM): 121
mean fluorescent intensity (MFI) of CD4+ Foxp3+ cells (Teffs and Tregs; Teff, 10 μM): 108
mean fluorescent intensity (MFI) of CD4+ Foxp3+ cells (Teffs and Tregs; Teff, 20 μM): 91
CD4+ Foxp3+ proportion (Teffs and Tregs; Teffs, 5 μM): 2
CD4+ Foxp3+ proportion (Teffs and Tregs; Teffs, 10 μM): 2
CD4+ Foxp3+ proportion (Teffs and Tregs; Teffs, 20 μM): 1
mean fluorescent intensity (MFI) of CD4+ Foxp3+ cells (Teffs and Tregs; Treg, 5 μM): 280
mean fluorescent intensity (MFI) of CD4+ Foxp3+ cells (Teffs and Tregs; Treg, 10 μM): 253
mean fluorescent intensity (MFI) of CD4+ Foxp3+ cells (Teffs and Tregs; Treg, 20 μM): 138
CD4+ Foxp3+ proportion (Teffs and Tregs; Tregs, 5 μM): 71
CD4+ Foxp3+ proportion (Teffs and Tregs; Tregs, 10 μM): 68
CD4+ Foxp3+ proportion (Teffs and Tregs; Tregs, 20 μM): 49
tumor growth (tumor volume) (TC1 lung cancer cells [3]; Alzet pumps from day 5, up to day 17): did not impair tumor growth
acetylation of histone 3 in tumor extracts (TC1 lung cancer cells [3]; compared to DMSO-treated mice): Decreased acetylation of histone 3
acetylation of alpha-tubulin in tumor extracts (TC1 lung cancer cells [3]; p300-independent target): unimpaired
alloantigen-induced T cell activation or proliferation (CFSE dilution) or production of cytokines such as IL-2 and IFN-γ [4]: did not impair
percentage of CFSE-labeled CD4 proliferating or dividing cells [4]: 73%
percentage of CFSE-labeled CD8 proliferating or dividing cells [4]: 95%
cardiac allograft rejection (cessation of heartbeat) (cardiac allografts; first experiment: 1×10^6 Teff plus 0.5×10^6 Tregs, HAT inhibitor via Alzet pump, DMSO gave long-term survival): restored rejection
Teff cell responses in vivo (allograft rejection) (cardiac allografts; second experiment: Teff cells alone plus p300i 0.9 mg/kg/d for 14 d, Alzet pumps): does not suppress Teff cell responses in vivo
graft function (isografts) (cardiac allografts; second experiment: WT B6 mice with normal B6 hearts): does not directly affect graft function
T cell-dependent graft rejection (cardiac allografts; third experiment: Teff plus Tregs, Alzet pumps for 14 days): restored T cell-dependent graft rejection
expression of CTLA4 by Treg cells (Treg and Teff cells [5]; p<0.01): significantly decreased
expression of GITR by Treg cells (Treg and Teff cells [5]; p<0.01): significantly decreased
expression of IL-10 by Treg cells (Treg and Teff cells [5]; p<0.01): significantly decreased
expression of TGF-β by Treg cells (Treg and Teff cells [5]; p<0.01): significantly decreased
expression of CTLA4, GITR, IL-10 and TGF-β by Teff cells (Treg and Teff cells [5]; p>0.05): unchanged
percentage of CFSE-labeled CD4 proliferating cells (CFSE-labeled T cells): 95.0%
percentage of CFSE-labeled CD8 proliferating or dividing cells (CFSE-labeled T cells): 81.6%
